According to patent publication US7109234B2, “Benzoxathiepine derivatives and their use as medicines” (Pierre Fabre Medicament, priority 2001, dated 2006):
Read-outs that look alike come from different tables or passages of the source.

What was measured:
[1] = tested on: rat isolated left atrium; assay: Inhibition of the veratrine-induced contraction of the rat isolated left atrium; assay type: cell-based; settings: for IC50: read-out: Contraction with veratrine Inhibition IC50; for in vitro activity (contraction with veratrine): stated in words
[2] = tested on: New Zealand rabbits; assay: Occlusion-reperfusion model in the anesthetized animal (ECG ST segment, arterial pressure, heart rate); assay type: in vivo, rabbit; settings: for Arterial pressure % variation / Heart rate % variation / ST segment % inhibition at 2.5 mg/kg p.o.: 2.5 mg/kg p.o., anesthetized rabbit; for ST segment % inhibition at 2.5 mg/kg p.o.: coronary occlusion-reperfusion; for in vivo activity (inhibition of the raising of the ST segment): stated in words, 2.5 mg/kg by the oral route
Experimental: Thus, the compounds of the invention are capable of normalizing the electrical disturbances of the ECG brought about by a regional ischemia followed by a reperfusion, this being achieved without a significant effect on the hemodynamic parameters. The test in question is carried out according to the technique described in J. Cardiovasc. Pharmacol., 1995, 25, 126 according to the following protocol.
Male New Zealand rabbits (Elévage des Dombes, Romans, Chatillon-sur-Chalaronne, France) weighing 2.2 to 2.7 kg are used. The animals are placed in quarantine for 4 to 8 days with free access to standardized laboratory food before they are used in the experiments. The animals are housed individually. Water filtered through a 0.22 μm filter is freely available from an automatic dispenser. The quarantine area and the experimental laboratory are air-conditioned (temperature: 20±3° C.; relative humidity: 55±5%) and are illuminated from 7 a.m. to 7 p.m. All the animals are treated according to the code of ethics for laboratory animals (Guide for the Care and Use of Laboratory Animals, […], Public Health Service, National Institutes of Health publication No. 85-23, Revised 1985) and the protocol (No. 28) is carried out in accordance with the recommendations of the local research animals ethics committee. The animals are anesthetized using sodium pentobarbital (60 mg/kg) administered intravenously (i.v.) via a catheter positioned in the vein of the ear. The animals are instrumented with respiratory assistance (683 rodent/small animal ventilator, Havard Apparatus, Les Ulis, France). The gas mixture inhaled is enriched in oxygen. The respiratory rhythm, the flow volume and the percentage of oxygen in the gas mixture are adjusted so as to keep the gases in the blood within physiological limits. A polyethylene catheter, introduced into the carotid artery, is used both for the measurements of arterial pressure and to take the samples intended for the analysis of the blood gases (ABL 510, Radiometer, Copenhagen, Denmark). Anesthesia is maintained by injections of sodium pentobarbital as required. The body temperature of the animals is kept at 38–39° C. throughout the duration of the experiment using a heating blanket (Homothermic Blanket, Havard Apparatus). The various catheters are rinsed using a sterile saline solution (0.9%) comprising heparin (150 U.I./ml). The ECG (DII derivation) is recorded in order to measure the variations in the heart rate (RR interval) and in the amplitude of the ST segment. The arterial pressure is digitized and analyzed simultaneously (Dataflow®, Crystal Biotech, Northboro, Mass.). The thorax of the animal is opened at the fourth intercostal space and the pericardium is incised so as to reveal the left coronary artery. A ligature (Vicryl®, 5/0, Ethicon, Paris, France) is passed under this artery. After examining the ECG in order to detect any signs of myocardial lesions (persistent rise of the ST segment above 0.25 mV), a period of stabilization lasting 30 min is systematically observed. Any animal showing a possible myocardial lesion is excluded from the study. The test compound or the vehicle is administered per os (p.o.), as a 1% solution in methyl-cellulose, in a proportion of 1 ml/kg via a gastric tube made of flexible rubber. Anesthesia is produced 60 min after administration of the test compound or of the vehicle. The main coronary artery is then ligated for 10 min, i.e. 60 min after anesthesia, the tension in the ligature is subsequently relaxed completely for 10 min and then reestablished at the end of the procedure. The heart is excised and perfused using a formaldehyde solution (10%). The surface not fixed by the formaldehyde is regarded as the surface at risk.
The parameters measured in the experiment are: • the systolic and diastolic arterial pressure; • the heart rate (measured from the RR intervals); • the amplitude of the ST segment. […]

[3] = rat isolated left atrium, veratrine 100 μg/ml, product added 15 min before

SMILES	IC50 [1, 3] [nM]	in vitro activity (contraction with veratrine) [1]	Arterial pressure % variation [2] [%]	Heart rate % variation [2] [%]	ST segment % inhibition at 2.5 mg/kg p.o. [2] [%]	in vivo activity (inhibition of the raising of the ST segment) [2]	IC50 ([1]; Rattus norvegicus) [nM]
CC(C)NCC(O)COc1ccc(CC(N)=O)cc1 (stereo not shown) [Atenolol, atenolol]	> 10000	inactive	−9	−13	49	active	–
COc1ccccc1SC[C@H](CN[C@@H]1COc2ccccc2SC1)OC [Compound 1-1, 3-(R)-[3-(2-Methoxyphenylthio)-2-(S)-methoxypropyl]amino-3,4-dihydro-2H-1,5-benzoxathiepine]	640	–	8	2	85	–	–
COc1ccccc1SC[C@@H](C)CN[C@@H]1COc2ccccc2SC1 [Compound 1-7, 3-(R)-[3-(2-Methoxyphenylthio)-2-(S)-methylpropyl]amino-3,4-dihydro-2H-1,5-benzoxathiepine]	140	–	5	0	69	–	–
COc1ccc([C@@H]2Sc3ccccc3N(CCN(C)C)C(=O)[C@@H]2OC(C)=O)cc1 [Diltiazem, diltiazem]	> 10000	inactive	−27	−5	30	active	–
CN(c1nc2ccccc2s1)C1CCN(CCCCOc2ccc(F)cc2)CC1 [R 56865]	–	–	–	–	0	–	250
